Reference: patent publication US10941158B2, “Pyrazole ACC inhibitors and uses thereof” (Gilead Apollo, LLC, priority 2015, dated 2021)
Converted amounts (≈) assume the structure as drawn. Like-named read-outs stand apart in the source and are kept apart here.

Assays:
human (hACC2) ACC2 = human (hACC2) ACC2 (Homo sapiens, UniProt O00763); test: In vitro Acetyl-CoA Carboxylase (ACC) inhibition assay (ADP-Glo), hACC2; format: biochemical
Experimental: The detailed procedure is as follows. […] 10 μL ADP glo reagent was added. […] 20 μL kinase detection reagent was added.
“NA” stands for “not assayed.”

Rhizoctonia solani (Rs) = test: Growth inhibition assay of fungal pathogens; format: cell-based; conditions: 48 h, read-out: Concentration at 90% Inhibition Rs
Experimental: (§1) Compounds of the present invention were evaluated in a growth inhibition assay to determine the ability to control the growth of fungal pathogens, such as Botrtyis cinerea (Bc), Collectotrichum graminicola (Cg). Diplodia maydis (Dm), Fusarium moniliforme (Fm), Fusarium virguliforme (Fv), Phytophthora capsici (Pc), Rhizoctonia solani (Rs), and Septoria tritici (St). Compounds to be tested were dissolved in DMSO at 2.5 mg/ml to produce compound stock solutions (“stocks”). Stocks were diluted with DMSO by a five-fold dilution in a 96-well stock plate, and two sets of final concentrations of 50, 10, and 2 ppm or 2, 0.4, and 0.08 ppm were obtained in vitro. A set of positive controls was also prepared, with various concentrations of Soraphen (2, 0.4, and 0.08 ppm), Metalaxyl (1.1, 0.22, and 0.04 ppm), and Metconazole (2, 0.4, and 0.08 ppm or 0.2, 0.04, and 0.008 ppm) after the five-fold dilutions. Negative controls on each plate included 2% DMSO, water, and a blank (media+2% DMSO). Fungal spores were isolated from previously sub-cultured plates of Botrtyis cinerea (Bc). Collectotrichum graminicola (Cg). Diplodia maydis (Dm), Fusarium moniliforme (Fm), Fusarium virguliforme (Fv), Phytophthora capsici (Pc), and Septoria tritici (St). The isolated spores were diluted to individual concentrations with a 17% V8 liquid media. For Rhizoctonia solani (Rs) and Pythium irregulare, 1.5 mm mycelial plugs were used in place of spores and ¼ Potato Dextrose Broth (PDB) was used for dilution. The spore concentrations and plug sizes were based on growth curves generated at 48 hours for each pathogen. In a second 96-well plate, the spores or mycelial plugs, media, diluted compound solutions, and controls were combined. Once the compound was added, a true final concentration of compound in each well was measured by an OD600 reading, which adjusted for any compound precipitation that might have occurred in the well. Plate readings were repeated at both 24 and 48 hours. The blank negative control was used as a background subtraction. Additional visual ratings were performed at both 24 and 48 hours for checking on precipitation and confirming efficacy. Visual and OD600 ratings of the compounds at 48 hours were compared to the 2% DMSO negative control, and the percent of pathogen growth inhibition was determined based on those values.

[1] = system: Fusarium virguliforme (Fv); test: Growth inhibition assay of fungal pathogens; format: cell-based; conditions: 48 h
Experimental: as §1

Botrtyis cinerea (Bc) = test: Growth inhibition assay of fungal pathogens; format: cell-based; conditions: 48 h, read-out: Concentration at 90% Inhibition Bc
Experimental: as §1

Diplodia maydis (Dm) = test: Growth inhibition assay of fungal pathogens; format: cell-based; conditions: Stenocarpella maydis, 48 h, read-out: Concentration at 90% Inhibition Dm
Experimental: as §1

[2] = system: Phytophthora capsici (Pc); test: Growth inhibition assay of fungal pathogens; format: cell-based; conditions: for IC90: Phytophthora capsici, read-out: Concentration at 90% Inhibition Pc
Experimental: as §1

[3] = system: Fusarium moniliforme (Fm); test: Growth inhibition assay of fungal pathogens; format: cell-based; conditions: for IC90: Fusarium verticillioides, 48 h, read-out: Concentration at 90% Inhibition Fm
Experimental: as §1

Septoria tritici (St) = test: Growth inhibition assay of fungal pathogens; format: cell-based; conditions: for IC90: Zymoseptoria tritici, read-out: Concentration at 90% Inhibition St
Experimental: as §1

[4] = system: Collectotrichum graminicola (Cg); test: Growth inhibition assay of fungal pathogens; format: cell-based; conditions: 48 h, read-out: Concentration at 90% Inhibition Cg
Experimental: as §1

C. krusei ATCC 6258 = test: Anti-Fungal (Candida) Activity Assay, broth microtiter MIC; format: cell-based; conditions: Pichia kudriavzevii, read-out: MIC C. krusei ATCC 6258
Experimental: (§2) Compounds of the present invention were evaluated in an Anti-Fungal Activity Assay. An exemplary procedure for the assay, which measures the susceptibility of various Candida species to anti-fungal compounds, follows. Compounds to be tested (including fluconazole and amphotericin B) were dissolved in DMSO to obtain a solution having a concentration of 1 mg/mL. […] All species were grown from frozen stock by directly plating on to freshly prepared Sabouraud Dextrose agar (BD, Difco) and incubated overnight in ambient air at 35° C. for 24 h. A direct suspension was prepared in RPMI 1640+MOPS (Lonza, Biowhittaker) by taking individual colonies from the overnight cultures using sterile swabs soaked in sterile saline. The concentration of the suspension was determined using pre-determined standard curves. […] Broth microtiter MIC challenge plates were prepared following CLSI guidelines (M27-A3, Vol. 28 No. 14). The original CLSI guidelines focused on reading Candida MICs after 48 h of incubation. As reading after only 24 h offers a clear advantage of patient care, QC limits are being established for all drugs at 24 h. That being said there are no known interpretive breakpoints for amphotericin B at 24 h and the current fluconazole interpretive breakpoints are based on a 48 h reading. The MIC for the test compounds were recorded at 48 h. All MIC determinations were achieved by visually comparing the growth found in the antibiotic challenged wells to that of the growth control.

C. albicans ATCC 90028 = test: as above; format: cell-based; conditions: read-out: MIC C. albicans ATCC 90028
Experimental: as §2

[5] = system: C. parapsilosis ATCC 22019; test: as above; format: cell-based; conditions: Lodderomyces parapsilosis, read-out: MIC C. parapsilosis ATCC 22019
Experimental: as §2

[6] = Table 4a, 48 hours, read-out: Concentration at 90% Inhibition Fv
[7] = Table 4b, 48 hours, read-out: Concentration at 90% Inhibition Fv
[8] = ATCC6258, 3 replicates, MIC recorded at 48 h
[9] = ATCC90028, 3 replicates, MIC recorded at 48 h
[10] = ATCC22019, 3 replicates, MIC recorded at 48 h
[11] = read-out: Concentration at 90% Inhibition Fv, Table 4a, 48 hours
[12] = read-out: Concentration at 90% Inhibition Fv, Table 4b, 48 hours

Sequence of human (hACC2) ACC2 (O00763 whole entry): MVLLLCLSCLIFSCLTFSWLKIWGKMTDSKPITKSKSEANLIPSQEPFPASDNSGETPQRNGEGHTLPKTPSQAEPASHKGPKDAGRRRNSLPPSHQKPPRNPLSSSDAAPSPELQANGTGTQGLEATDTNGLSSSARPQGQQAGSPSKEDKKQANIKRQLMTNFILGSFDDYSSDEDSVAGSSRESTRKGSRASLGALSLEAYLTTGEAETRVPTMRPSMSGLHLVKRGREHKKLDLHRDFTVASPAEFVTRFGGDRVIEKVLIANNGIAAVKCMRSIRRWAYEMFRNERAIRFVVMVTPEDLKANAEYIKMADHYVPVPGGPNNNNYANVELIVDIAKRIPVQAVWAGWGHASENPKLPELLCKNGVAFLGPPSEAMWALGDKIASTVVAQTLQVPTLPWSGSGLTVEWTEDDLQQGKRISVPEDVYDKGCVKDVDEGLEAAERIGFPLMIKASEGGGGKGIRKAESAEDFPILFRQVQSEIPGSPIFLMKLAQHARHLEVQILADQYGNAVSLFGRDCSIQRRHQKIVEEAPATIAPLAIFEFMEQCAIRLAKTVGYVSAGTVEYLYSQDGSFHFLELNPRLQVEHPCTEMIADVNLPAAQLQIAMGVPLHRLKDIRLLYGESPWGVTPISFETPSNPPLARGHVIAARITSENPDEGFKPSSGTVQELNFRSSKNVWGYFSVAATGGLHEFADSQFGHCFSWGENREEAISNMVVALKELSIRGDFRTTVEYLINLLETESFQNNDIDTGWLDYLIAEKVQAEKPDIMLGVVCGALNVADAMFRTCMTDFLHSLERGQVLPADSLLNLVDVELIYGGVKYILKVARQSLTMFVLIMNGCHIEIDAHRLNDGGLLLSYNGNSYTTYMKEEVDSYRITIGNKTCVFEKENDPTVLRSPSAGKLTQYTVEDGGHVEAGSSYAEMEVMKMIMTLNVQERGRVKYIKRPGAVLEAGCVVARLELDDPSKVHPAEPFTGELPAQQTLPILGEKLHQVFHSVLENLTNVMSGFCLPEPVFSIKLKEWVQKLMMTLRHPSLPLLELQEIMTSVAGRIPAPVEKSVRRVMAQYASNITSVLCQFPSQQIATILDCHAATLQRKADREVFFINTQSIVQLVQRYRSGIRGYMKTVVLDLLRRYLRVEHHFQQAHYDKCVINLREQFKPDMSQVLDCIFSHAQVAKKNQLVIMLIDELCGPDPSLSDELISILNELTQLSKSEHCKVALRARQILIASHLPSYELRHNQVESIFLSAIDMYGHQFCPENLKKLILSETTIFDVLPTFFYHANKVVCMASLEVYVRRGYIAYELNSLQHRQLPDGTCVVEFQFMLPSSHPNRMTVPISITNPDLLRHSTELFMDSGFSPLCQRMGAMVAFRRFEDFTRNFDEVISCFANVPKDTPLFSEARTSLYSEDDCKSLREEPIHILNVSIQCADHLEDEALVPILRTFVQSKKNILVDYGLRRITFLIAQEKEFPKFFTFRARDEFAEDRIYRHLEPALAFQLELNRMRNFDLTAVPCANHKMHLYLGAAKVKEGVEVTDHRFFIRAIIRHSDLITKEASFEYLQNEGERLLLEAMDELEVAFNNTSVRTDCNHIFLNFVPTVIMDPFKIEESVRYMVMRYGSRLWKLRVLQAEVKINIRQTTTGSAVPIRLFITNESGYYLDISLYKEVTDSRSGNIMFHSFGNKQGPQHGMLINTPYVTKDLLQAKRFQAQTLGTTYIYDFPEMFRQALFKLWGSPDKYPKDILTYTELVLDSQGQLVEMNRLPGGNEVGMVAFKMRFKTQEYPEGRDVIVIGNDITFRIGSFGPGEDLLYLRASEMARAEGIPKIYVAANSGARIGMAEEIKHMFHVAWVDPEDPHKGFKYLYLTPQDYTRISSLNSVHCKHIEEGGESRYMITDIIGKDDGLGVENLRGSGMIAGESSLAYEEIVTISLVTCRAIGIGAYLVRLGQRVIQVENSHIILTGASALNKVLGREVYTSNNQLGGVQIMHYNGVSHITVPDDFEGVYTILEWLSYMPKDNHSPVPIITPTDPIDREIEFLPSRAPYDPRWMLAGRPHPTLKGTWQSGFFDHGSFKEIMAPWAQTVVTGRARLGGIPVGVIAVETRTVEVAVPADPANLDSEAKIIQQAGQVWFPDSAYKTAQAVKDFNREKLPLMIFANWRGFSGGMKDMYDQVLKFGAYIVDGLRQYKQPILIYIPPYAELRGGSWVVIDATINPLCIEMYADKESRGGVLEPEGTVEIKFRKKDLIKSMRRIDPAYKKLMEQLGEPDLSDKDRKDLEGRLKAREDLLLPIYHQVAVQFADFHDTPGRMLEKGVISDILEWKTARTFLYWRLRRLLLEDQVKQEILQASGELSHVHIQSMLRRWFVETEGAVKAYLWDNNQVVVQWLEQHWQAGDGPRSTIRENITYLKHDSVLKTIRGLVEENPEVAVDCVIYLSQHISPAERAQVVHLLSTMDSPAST

Structure (SMILES)	IC50 (human (hACC2) ACC2) [µM]	IC90 (Rhizoctonia solani (Rs); Table 4a) [µg/mL]	IC90 (Rhizoctonia solani (Rs); Table 4b) [µg/mL]	IC90 (Botrtyis cinerea (Bc); Table 4a) [µg/mL]	IC90 (Botrtyis cinerea (Bc); Table 4b) [µg/mL]	IC90 (Diplodia maydis (Dm); Table 4a) [µg/mL]	IC90 (Diplodia maydis (Dm); Table 4b) [µg/mL]	IC90 ([4]; Table 4a) [µg/mL]	IC90 ([4]; Table 4b) [µg/mL]	IC90 [1, 11] [µg/mL]	IC90 [1, 12] [µg/mL]	IC90 ([2]; 48 h, Table 4a) [µg/mL]	IC90 ([2]; 48 h, Table 4b) [µg/mL]	IC90 [3] [µg/mL]	Concentration at 90% Inhibition Fm ([3]; Table 4b, 48 hours)	IC90 (Septoria tritici (St); 48 h, Table 4a) [µg/mL]	IC90 (Septoria tritici (St); 48 h, Table 4b) [µg/mL]	MIC (C. krusei ATCC 6258; ATCC6258, 48 h) [µg/mL]	MIC (C. albicans ATCC 90028; ATCC90028, 48 h) [µg/mL]	MIC ([5]; ATCC22019, 48 h) [µg/mL]	further results
COc1ccc(F)cc1[C@H](Cn1c(=O)n(C(C)(C)C(=O)NC(C)C)c(=O)c2c(C)c(-n3cccn3)sc21)O[C@H]1CC[C@@H](O)CC1 [Compound I-14, 2-(1-((R)-2-(5-fluoro-2-methoxyphenyl)-2-(((1s,4S)-4-hydroxycyclohexyl)oxy)ethyl)-5-methyl-2,4-dioxo-6-(1H-pyrazol-1-yl)-1,4-dihydro-thieno[2,3-d]pyrimidin-3(2H)-yl)-N-isopropyl-2-methylpropanamide]	0.003 to 0.01	2 (≈ 3.12 µM)	2 (≈ 3.12 µM)	0.4 (≈ 0.623 µM)	0.4 (≈ 0.623 µM)	2 (≈ 3.12 µM)	2 (≈ 3.12 µM)	> 50	> 50												IC90 [1, 6]: 2 µg/mL (≈ 3.12 µM); IC90 [1, 7]: 2 µg/mL (≈ 3.12 µM); IC90 ([2]; Table 4a, 48 hours): > 50 µg/mL; Concentration at 90% Inhibition Pc ([2]; Table 4b, 48 hours): D (“D” provided a compound concentration of >50 ppm at 90% inhibition of fungal pathogens); IC90 ([3]; Table 4a, 48 hours): 0.08 µg/mL (≈ 0.125 µM); IC90 ([3]; Table 4b, 48 hours): 0.08 µg/mL (≈ 0.125 µM); Concentration at 90% Inhibition St (Septoria tritici (St); Table 4b, 48 hours): D (“D” provided a compound concentration of >50 ppm at 90% inhibition of fungal pathogens); IC90 (Septoria tritici (St); Table 4a, 48 hours): > 50 µg/mL; MIC (C. krusei ATCC 6258; [8]): 1.1 to 2 µg/mL (≈ 1.71 to 3.12 µM); MIC (C. albicans ATCC 90028; [9]): 0.25 to 1 µg/mL (≈ 0.39 to 1.56 µM); MIC [5, 10]: 0.25 to 1 µg/mL (≈ 0.39 to 1.56 µM)
COc1ccc(F)cc1[C@H](Cn1c(=O)n(C(C)(C)C(=O)N2CCCC2)c(=O)c2c(C)c(-n3cccn3)sc21)O[C@H]1CC[C@@H](O)CC1 [Compound I-15, 1-((R)-2-(5-fluoro-2-methoxyphenyl)-2-(((1s,4S)-4-hydroxycyclohexyl)oxy)ethyl)-5-methyl-3-(2-methyl-1-oxo-1-(pyrrolidin-1-yl)pro-pan-2-yl)-6-(1H-pyrazol-1-yl)thieno[2,3-d]pyrimidine-2,4(1H,3H)-dione]	0.003 to 0.01	> 50	10 (≈ 15.3 µM)	2 (≈ 3.06 µM)	2 (≈ 3.06 µM)	> 50	10 (≈ 15.3 µM)	> 50	10 (≈ 15.3 µM)												IC90 [1, 6]: 2 µg/mL (≈ 3.06 µM); IC90 [1, 7]: 2 µg/mL (≈ 3.06 µM); IC90 ([2]; Table 4a, 48 hours): > 50 µg/mL; Concentration at 90% Inhibition Pc ([2]; Table 4b, 48 hours): D (“D” provided a compound concentration of >50 ppm at 90% inhibition of fungal pathogens); IC90 ([3]; Table 4a, 48 hours): 0.4 µg/mL (≈ 0.612 µM); IC90 ([3]; Table 4b, 48 hours): 0.4 µg/mL (≈ 0.612 µM); Concentration at 90% Inhibition St (Septoria tritici (St); Table 4b, 48 hours): D (“D” provided a compound concentration of >50 ppm at 90% inhibition of fungal pathogens); IC90 (Septoria tritici (St); Table 4a, 48 hours): > 50 µg/mL; MIC (C. krusei ATCC 6258; [8]): 1.1 to 2 µg/mL (≈ 1.68 to 3.06 µM); MIC (C. albicans ATCC 90028; [9]): 0.25 to 1 µg/mL (≈ 0.382 to 1.53 µM); MIC [5, 10]: 0.25 to 1 µg/mL (≈ 0.382 to 1.53 µM)
COc1ccccc1[C@H](Cn1c(=O)n(C(C)(C)C(=O)NC(C)C)c(=O)c2c(C)c(-n3cccn3)sc21)OC(C)C [Compound I-17, (R)-2-(l-(2-isopropoxy-2-(2-methoxyphenyl)ethyl)-5-methyl-2,4-dioxo-6-(H-pyrazol-1-yl)-1,4-dihydrothieno[2,3-d]pyrimidin-3(2H)-yl)-N-isopropyl-2-methylpropanamide]	0.003 to 0.01	> 50	> 50	2 (≈ 3.52 µM)	2 (≈ 3.52 µM)	2 (≈ 3.52 µM)	2 (≈ 3.52 µM)	> 50	10 (≈ 17.6 µM)	0.4 (≈ 0.705 µM)	0.4 (≈ 0.705 µM)	> 50	> 50	0.4 (≈ 0.705 µM)	A (“A” provided a compound concentration of 0.4 ppm at 90% inhibition of fungal pathogens)	> 50	> 50	0.25 to 1 (≈ 0.44 to 1.76 µM)	0.25 to 1 (≈ 0.44 to 1.76 µM)	0.25 to 1 (≈ 0.44 to 1.76 µM)	
COc1ccccc1[C@H](Cn1c(=O)n(C(C)(C)C(=O)N2CCCCC2)c(=O)c2c(C)c(-n3cccn3)sc21)OC(C)C [Compound I-19, (R)-1-(2-isopropoxy-2-(2-methoxyphenyl)ethyl)-5-methyl-3-(2-methyl-1-oxo-1-(piperidin-1-yl)propan-2-yl)-6-(H-pyrazol-1-yl)thieno[2,3-d]pyrimidine-2,4(1H,3H)-dione]	0.01 to 0.04	2 (≈ 3.37 µM)	2 (≈ 3.37 µM)	0.4 (≈ 0.674 µM)	0.4 (≈ 0.674 µM)	2 (≈ 3.37 µM)	2 (≈ 3.37 µM)	10 (≈ 16.8 µM)	2 (≈ 3.37 µM)	0.4 (≈ 0.674 µM)	0.4 (≈ 0.674 µM)	> 50	> 50	0.08 (≈ 0.135 µM)	AA (“AA” provided a compound concentration of 0.08 ppm at 90% inhibition of fungal pathogens)	> 50	> 50	2.1 to 4 (≈ 3.54 to 6.74 µM)	> 4.1	> 4.1	
COc1ccccc1[C@H](Cn1c(=O)n(C(C)(C)C(=O)NC(C)C)c(=O)c2c(C)c(-n3cccn3)sc21)OCC(C)C [Compound I-21, (R)-2-(1-(2-isobutoxy-2-(2-methoxyphenyl)ethyl)-5-methyl-2,4-dioxo-6-(1H-pyrazol-1-yl)-1,4-dihydrothieno[2,3-d]pyrimidin-3(2H)-yl)-N-isopropyl-2-methylpropanamide]	0.01 to 0.04	2 (≈ 3.44 µM)	2 (≈ 3.44 µM)	2 (≈ 3.44 µM)	2 (≈ 3.44 µM)	10 (≈ 17.2 µM)	2 (≈ 3.44 µM)	> 50	10 (≈ 17.2 µM)	> 50	10 (≈ 17.2 µM)	> 50	> 50	0.4 (≈ 0.688 µM)	A (“A” provided a compound concentration of 0.4 ppm at 90% inhibition of fungal pathogens)	> 50	> 50	0.25 to 1 (≈ 0.43 to 1.72 µM)	0.25 to 1 (≈ 0.43 to 1.72 µM)	0.25 to 1 (≈ 0.43 to 1.72 µM)	
